Measured values published in the supplement of paper PMC11451515.

System: P12-Ichikawa
Assay: cell viability relative to DMSO control; higher = less cytotoxic
Conditions: 48 h
Summary of the method: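 Viability is a per-plate percentage relative to DMSO wells, with cell-free wells as background. CellTiter-Glo One luminescence was read after 48 h at 37°C on 1536-well plates (5 μl) of NOMO1 or SEM (500 cells/well) or P12-Ichikawa (1000 cells/well) leukemia cells. The cells had been adapted for at least four passages in each medium and pin-dosed with library compounds in DMSO from 47 μM to 0.79 nM in 11 threefold steps.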

[1] = HPLM + 10% dialyzed FBS, 0.000781 µM
[2] = HPLM + 10% dialyzed FBS, 0.00234 µM
[3] = HPLM + 10% dialyzed FBS, 0.00702 µM
[4] = HPLM + 10% dialyzed FBS, 0.0211 µM
[5] = HPLM + 10% dialyzed FBS, 0.0632 µM
[6] = HPLM + 10% dialyzed FBS, 0.19 µM
[7] = HPLM + 10% dialyzed FBS, 0.569 µM
[8] = HPLM + 10% dialyzed FBS, 1.71 µM
[9] = HPLM + 10% dialyzed FBS, 5.12 µM
[10] = HPLM + 10% dialyzed FBS, 15.4 µM
[11] = HPLM + 10% dialyzed FBS, 46.1 µM
[12] = RPMI 5 mM glucose + 10% FBS, 0.000781 µM
[13] = RPMI 5 mM glucose + 10% FBS, 0.00234 µM
[14] = RPMI 5 mM glucose + 10% FBS, 0.00702 µM
[15] = RPMI 5 mM glucose + 10% FBS, 0.0211 µM
[16] = RPMI 5 mM glucose + 10% FBS, 0.0632 µM
[17] = RPMI 5 mM glucose + 10% FBS, 0.19 µM
[18] = RPMI 5 mM glucose + 10% FBS, 0.569 µM
[19] = RPMI 5 mM glucose + 10% FBS, 1.71 µM
[20] = RPMI 5 mM glucose + 10% FBS, 5.12 µM
[21] = RPMI 5 mM glucose + 10% FBS, 15.4 µM
[22] = RPMI 5 mM glucose + 10% FBS, 46.1 µM
[23] = RPMI 5 mM glucose + 10% dialyzed FBS, 0.000781 µM
[24] = RPMI 5 mM glucose + 10% dialyzed FBS, 0.00234 µM
[25] = RPMI 5 mM glucose + 10% dialyzed FBS, 0.00702 µM
[26] = RPMI 5 mM glucose + 10% dialyzed FBS, 0.0211 µM
[27] = RPMI 5 mM glucose + 10% dialyzed FBS, 0.0632 µM
[28] = RPMI 5 mM glucose + 10% dialyzed FBS, 0.19 µM
[29] = RPMI 5 mM glucose + 10% dialyzed FBS, 0.569 µM
[30] = RPMI 5 mM glucose + 10% dialyzed FBS, 1.71 µM
[31] = RPMI 5 mM glucose + 10% dialyzed FBS, 5.12 µM
[32] = RPMI 5 mM glucose + 10% dialyzed FBS, 15.4 µM
[33] = RPMI 5 mM glucose + 10% dialyzed FBS, 46.1 µM

Row | Structure (SMILES) | cell viability [1] [%] | cell viability [2] [%] | cell viability [3] [%] | cell viability [4] [%] | cell viability [5] [%] | cell viability [6] [%] | cell viability [7] [%] | cell viability [8] [%] | cell viability [9] [%] | cell viability [10] [%] | cell viability [11] [%] | cell viability [12] [%] | cell viability [13] [%] | cell viability [14] [%] | cell viability [15] [%] | cell viability [16] [%] | cell viability [17] [%] | cell viability [18] [%] | cell viability [19] [%] | cell viability [20] [%] | cell viability [21] [%] | cell viability [22] [%] | cell viability [23] [%] | cell viability [24] [%] | cell viability [25] [%] | cell viability [26] [%] | cell viability [27] [%] | cell viability [28] [%] | cell viability [29] [%] | cell viability [30] [%] | cell viability [31] [%] | cell viability [32] [%] | cell viability [33] [%]
1 | O=C(Oc1ccc([N+](=O)[O-])cc1)N1CCN(Cc2cccc(Oc3ccccc3)c2)CC1 | 96.8 | 101 | 106 | 116 | 113 | 112 | 114 | 111 | 113 | 102 | 104 | 105 | 98 | 112 | 114 | 111 | 112 | 122 | 118 | 102 | 102 | 107 | 101 | 92.2 | 100 | 101 | 105 | 101 | 105 | 114 | 103 | 109 | 108
2 | CCCCc1oc2ccc(NS(C)(=O)=O)cc2c1C(=O)c1ccc(OCCCN(CCCC)CCCC)cc1 | 98.3 | 99 | 117 | 108 | 107 | 108 | 110 | 111 | 106 | 12.1 | 15 | 96 | 117 | 113 | 115 | 118 | 111 | 112 | 105 | 98.1 | 15.5 | 12.7 | 93.3 | 99.9 | 102 | 109 | 108 | 110 | 104 | 109 | 95.7 | 20.9 | 10.3
3 | CN[C@@H](C)C(=O)N[C@H]1CCCC[C@H]2CC[C@@H](C(=O)N[C@@H](c3ccccc3)c3cn(CCCCc4ccc(CCCCn5cc([C@@H](NC(=O)[C@@H]6CC[C@@H]7CCCC[C@H](NC(=O)[C@H](C)NC)C(=O)N76)c6ccccc6)nn5)cc4)nn3)N2C1=O | 103 | 101 | 99.3 | 95.4 | 102 | 99.8 | 94.8 | 104 | 96.3 | 96.8 | 94.7 | 98.6 | 104 | 92 | 106 | 92.8 | 99.7 | 115 | 97.9 | 96.2 | 97.1 | 79.9 | 90.8 | 110 | 94.7 | 84.7 | 93 | 101 | 97.3 | 98 | 92.1 | 93.5 | 72.9
4 | Cc1ccccc1C(C(=O)NC1CCCCC1)N(C(=O)CNc1ccc(C#N)cc1)c1cccc(F)c1 (configuration not stated) | 111 | 113 | 107 | 105 | 114 | 103 | 106 | 104 | 102 | 104 | 99.2 | 73.9 | 104 | 110 | 112 | 112 | 102 | 102 | 102 | 99 | 95.6 | 94.6 | 64.4 | 110 | 110 | 112 | 104 | 92.7 | 103 | 92.5 | 91.3 | 98.8 | 98.6
5 | CCOP(=O)(OCC)C(C)NC(=O)N(CCCl)N=O (configuration not stated) | 122 | 116 | 132 | 119 | 124 | 130 | 123 | 123 | 128 | 130 | 141 | – | – | – | – | – | – | – | – | – | – | – | – | – | – | – | – | – | – | – | – | – | –
6 | C[C@H]1CCC/C=C/C2C[C@H](O)C[C@H]2[C@H](O)/C=C/C(=O)O1 (some centres not stated) | 90.4 | 102 | 94.8 | 70.4 | 32.8 | 18.7 | 9.39 | 4.66 | 2.87 | 2.17 | 2.02 | 74 | 75.3 | 81.5 | 60.1 | 10.9 | 9.73 | 6.57 | 4.48 | 1.69 | 1.14 | 1.83 | 104 | 81.9 | 86.1 | 62.7 | 12.7 | 12.8 | 6.09 | 4.16 | 3.23 | 2.71 | 1.83
7 | CN1C(=O)COc2c(C(=O)NC3CN4CCC3CC4)cc(Cl)cc21 (configuration not stated) | 87.1 | 107 | 104 | 105 | 109 | 109 | 99.6 | 96.9 | 94.2 | 107 | 111 | 95 | 115 | 110 | 119 | 132 | 73 | 66.4 | 86.1 | 95.7 | 95.6 | 121 | 95.8 | 98.4 | 101 | 97.8 | 101 | 95.4 | 98.9 | 96.9 | 92.6 | 89.2 | 99
8 | N=C(N)c1ccc(OCCCCCOc2ccc(C(=N)N)cc2)cc1 | 101 | 108 | 108 | 110 | 111 | 102 | 101 | 103 | 106 | 97.1 | 79.5 | 104 | 109 | 109 | 114 | 116 | 111 | 107 | 104 | 117 | 85.3 | 62.8 | 101 | 115 | 123 | 125 | 118 | 114 | 118 | 108 | 107 | 102 | 81.5
